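Five concentrations, 48 hours, 96-well plates. GI50: concentration for 50% inhibition of growth. TGI marks complete inhibition of growth.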
Tests used:
Experiment in all cases: NCI-60 cell line screen, 48 h
[1] = tested on: NCI-H522 lung
[2] = tested on: ACHN renal
[3] = tested on: M14 melanoma
[4] = tested on: MDA-MB-435
[5] = tested on: HT29 colon
[6] = tested on: DU-145 prostate
[7] = tested on: SNB-19 CNS
[8] = tested on: SF-295 CNS
[9] = tested on: HCT-116 colon
[10] = tested on: T-47D breast
[11] = tested on: CCRF-CEM leukemia
[12] = tested on: MCF7 breast
[13] = tested on: HOP-62 NSCLC
[14] = tested on: SK-MEL-5 melanoma
[15] = tested on: UO-31 renal
[16] = tested on: HS 578T breast
[17] = tested on: HOP-92 NSCLC
[18] = tested on: K-562 leukemia
[19] = tested on: 786-0 renal
[20] = tested on: NCI-H23 lung
[21] = tested on: NCI/ADR-RES ovarian
[22] = tested on: KM12 colon
[23] = tested on: RPMI-8226 leukemia
[24] = tested on: OVCAR-3 ovarian
[25] = tested on: PC-3 prostate
[26] = tested on: SW-620 colon
[27] = tested on: TK-10 renal
[28] = tested on: OVCAR-4 ovarian
[29] = tested on: HCC-2998 colon
[30] = tested on: OVCAR-5 ovarian
[31] = tested on: UACC-62 melanoma
[32] = tested on: SF-268 CNS
[33] = tested on: NCI-H226 lung
[34] = tested on: HCT-15 colon
[35] = tested on: OVCAR-8 ovarian
[36] = tested on: MALME-3M melanoma
[37] = tested on: SN12C renal
[38] = tested on: SK-MEL-28 melanoma
[39] = tested on: SR leukemia
[40] = tested on: CAKI-1 renal
[41] = tested on: U251 CNS
[42] = tested on: COLO 205 colon
[43] = tested on: NCI-H460 lung
[44] = tested on: EKVX NSCLC
[45] = tested on: LOX IMVI melanoma
[46] = tested on: MDA-MB-231 breast
[47] = tested on: SK-OV-3 ovarian
[48] = tested on: A549 NSCLC

Compound Cc1cc(N(CCOS(C)(=O)=O)CCOS(C)(=O)=O)ccc1C(=O)O has a GI50 [1] of 10.7 µM, a TGI [1] of over 100 µM and a GI50 [2] of 50 µM. It also gave a TGI [2] of over 100 µM, a GI50 [3] of over 100 µM and a TGI [3] of over 100 µM. For the same compound, the GI50 [4] was over 100 µM, the TGI [4] was over 100 µM and the GI50 [5] was over 100 µM. It also gave a TGI [5] of over 100 µM, a GI50 [6] of over 100 µM and a TGI [6] of over 100 µM. For the same compound, the GI50 [7] was over 100 µM, the TGI [7] was over 100 µM and the GI50 [8] was over 100 µM. The TGI [8] was over 100 µM, the GI50 [9] was over 100 µM and the TGI [9] was over 100 µM. The GI50 [10] was over 100 µM, the TGI [10] was over 100 µM and the GI50 [11] was 67.4 µM. The TGI [11] was over 100 µM, the GI50 [12] was 87.4 µM and the TGI [12] was over 100 µM. It also gave a GI50 [13] of over 100 µM, a TGI [13] of over 100 µM and a GI50 [14] of over 100 µM. It also gave a TGI [14] of over 100 µM, a GI50 [15] of over 100 µM and a TGI [15] of over 100 µM. For the same compound, the GI50 [16] was over 100 µM, the TGI [16] was over 100 µM and the GI50 [17] was 37.1 µM. The TGI [17] was over 100 µM, the GI50 [18] was over 100 µM and the TGI [18] was over 100 µM. The GI50 [19] was over 100 µM, the TGI [19] was over 100 µM and the GI50 [20] was 98.2 µM. The TGI [20] was over 100 µM, the GI50 [21] was over 100 µM and the TGI [21] was over 100 µM. For the same compound, the GI50 [22] was over 100 µM, the TGI [22] was over 100 µM and the GI50 [23] was over 100 µM. For the same compound, the TGI [23] was over 100 µM, the GI50 [24] was over 100 µM and the TGI [24] was over 100 µM. For the same compound, the GI50 [25] was over 100 µM, the TGI [25] was over 100 µM and the GI50 [26] was over 100 µM. It also gave a TGI [26] of over 100 µM, a GI50 [27] of over 100 µM and a TGI [27] of over 100 µM. For the same compound, the GI50 [28] was over 100 µM, the TGI [28] was over 100 µM and the GI50 [29] was over 100 µM. The TGI [29] was over 100 µM, the GI50 [30] was over 100 µM and the TGI [30] was over 100 µM. The GI50 [31] was over 100 µM, the TGI [31] was over 100 µM and the GI50 [32] was over 100 µM. For the same compound, the TGI [32] was over 100 µM, the GI50 [33] was over 100 µM and the TGI [33] was over 100 µM. The GI50 [34] was over 100 µM, the TGI [34] was over 100 µM and the GI50 [35] was over 100 µM. For the same compound, the TGI [35] was over 100 µM, the GI50 [36] was over 100 µM and the TGI [36] was over 100 µM. It also gave a GI50 [37] of over 100 µM, a TGI [37] of over 100 µM and a GI50 [38] of over 100 µM. For the same compound, the TGI [38] was over 100 µM, the GI50 [39] was 40.7 µM and the TGI [39] was over 100 µM. It also gave a GI50 [40] of 43.7 µM, a TGI [40] of over 100 µM and a GI50 [41] of over 100 µM. The TGI [41] was over 100 µM, the GI50 [42] was over 100 µM and the TGI [42] was over 100 µM. The GI50 [43] was 87.6 µM, the TGI [43] was over 100 µM and the GI50 [44] was over 100 µM. For the same compound, the TGI [44] was over 100 µM, the GI50 [45] was 73.5 µM and the TGI [45] was over 100 µM. The GI50 [46] was over 100 µM, the TGI [46] was over 100 µM and the GI50 [47] was over 100 µM. The TGI [47] was over 100 µM, the GI50 [48] was over 100 µM and the TGI [48] was over 100 µM.
